Results reported in patent US20230414626A1, “INDUCTION OF FERROPTOSIS FOR CANCER THERAPY” (Memorial Sloan Kettering Cancer Center, priority 2020, published 2023).

Tested on: SREBP1 (SREBP1m)
Experiment: Western blot of mature SREBP1
Type: cell-based, human
Conditions: RSL3-resistant cancer cells (BT474, MDA-MB-453, MCF7); CCI-779 0.5 μM
Description: FIG. 4 A-F. mTORC1 activation suppresses ferroptosis by upregulating SREBP1. (A) BT474 and MDA-MB-453 cells were treated as indicated. RSL3, 0.5 μM; CCI-779, 0.5 μM. Cell lysates were collected after 8 h and 24 h of treatment for BT474 cells and MDA-MB-453 cells, respectively, for western blot detecting […], total S6K, unprocessed SREBP1 (SREBP1(p)) and processed, mature SREBP1 (SREBP1(m)). (B) Cells were treated as indicated. RSL3, 0.5 μM for BT474 cells and 1 μM for MDA-MB-453 cells; Fer-1, 1 μM. (C) Cells were treated as in panel B. Lipid peroxidation was measured. (D) 3D spheroids derived from BT474 cells harboring control or SREBF1 sgRNA were treated as indicated. CCI-779, 0.5 μM; RSL3, 0.5 μM; Fer-1, 1 μM. Top, cell death stained by Sytox Green (scale bar, 100 μm). Bottom, cell viability. (E) SREBP1m was overexpressed in BT474 cells and determined by western blot. Cells were treated as indicated. RSL3, 0.5 μM; CCI-779, 0.5 μM. Cell death was measured (bottom panel). (F) 3D spheroids derived from BT474 cells were treated as indicated. RSL3, 0.5 μM; CCI-779, 0.5 μM; Fer-1, 1 μM. Top, cell death stained by Sytox Green (scale bar, 100 m). […]
FIG. 9 A-F. SREBP1 protects cells from ferroptosis. […] (C) Efficiency of SREBF1 Knockout in BT474, MDA-MB-453, and MCF7 cells was monitored by western blot. […] (F) SREBP1m was overexpressed in MCF7, MDA-MB-453 and A549 cells and determined by western blot. […]

CO[C@H]1C[C@@H]2CC[C@@H](C)[C@@](O)(O2)C(=O)C(=O)N2CCCC[C@H]2C(=O)O[C@H]([C@H](C)C[C@@H]2CC[C@@H](OC(=O)C(C)(CO)CO)[C@H](OC)C2)CC(=O)[C@H](C)/C=C(\C)[C@@H](O)[C@@H](OC)C(=O)[C@H](C)C[C@H](C)/C=C/C=C/C=C/1C [CCI-779, Temsirolimus]
level of the mature form of SREBP1 (SREBP1m): decreased
